Experiments:
AKT1 = AKT1 (Homo sapiens (Human), UniProt P31749); assay: In vitro kinase panel (SelectScreen); type: biochemical
Description: (§1) In vitro kinase screen and competitive binding assay. Sorafenib as well as test compounds were submitted to Invitrogen and screened using their SelectScreen™ Profiling Service.

MEK2 = MEK2 (Homo sapiens (Human), UniProt P36507); assay: In vitro kinase panel (SelectScreen); type: biochemical
Description: as §1

ERK1 = ERK1 (Homo sapiens (Human), UniProt P27361); assay: In vitro kinase panel (SelectScreen); type: biochemical
Description: as §1

JNK3 = JNK3 (Homo sapiens (Human), UniProt P53779); assay: In vitro kinase panel (SelectScreen); type: biochemical
Description: as §1

PKC iota = PKC iota (Homo sapiens (Human), UniProt P41743); assay: In vitro kinase panel (SelectScreen); type: biochemical
Description: as §1

FGFR3 = FGFR3 (Homo sapiens (Human), UniProt P22607); assay: In vitro kinase panel (SelectScreen); type: biochemical
Description: as §1

FLT1 (VEGFR1) = FLT1 (VEGFR1) (Homo sapiens (Human), UniProt P17948); assay: In vitro kinase panel (SelectScreen); type: biochemical
Description: as §1

MEK1 = MEK1 (Homo sapiens (Human), UniProt Q02750); assay: In vitro kinase panel (SelectScreen); type: biochemical
Description: as §1

FGFR2 = FGFR2 (Homo sapiens (Human), UniProt P21802); assay: In vitro kinase panel (SelectScreen); type: biochemical
Description: as §1

PKC beta II = PKC beta II (Homo sapiens (Human), UniProt P05771); assay: In vitro kinase panel (SelectScreen); type: biochemical
Description: as §1

PDGFR beta = PDGFR beta (Homo sapiens (Human), UniProt P09619); assay: In vitro kinase panel (SelectScreen); type: biochemical
Description: as §1

FAK2 = FAK2 (Homo sapiens (Human), UniProt Q14289); assay: In vitro kinase panel (SelectScreen); type: biochemical
Description: as §1

PKC eta = PKC eta (Homo sapiens (Human), UniProt P24723); assay: In vitro kinase panel (SelectScreen); type: biochemical
Description: as §1

ERK2 = ERK2 (Homo sapiens (Human), UniProt P28482); assay: In vitro kinase panel (SelectScreen); type: biochemical
Description: as §1

PKC alpha = PKC alpha (Homo sapiens (Human), UniProt P17252); assay: In vitro kinase panel (SelectScreen); type: biochemical
Description: as §1

PAK2 = PAK2 (Homo sapiens (Human), UniProt Q13177); assay: In vitro kinase panel (SelectScreen); type: biochemical
Description: as §1

JNK1 = JNK1 (Homo sapiens (Human), UniProt P45983); assay: In vitro kinase panel (SelectScreen); type: biochemical
Description: as §1

FGFR1 = FGFR1 (Homo sapiens (Human), UniProt P11362); assay: In vitro kinase panel (SelectScreen); type: biochemical
Description: as §1

XPA-1 cells = assay: Cell cycle analysis of XPA-1 cells (flow cytometry); type: cell-based; details: 5 μM, 20 h
Protocol: For cell cycle analysis, cells were grown in complete DMEM+10% FBS in the presence of each inhibitor and harvested after 20 h of inhibitor treatment. Cell cycle analysis was performed by flow cytometry following propidium iodide staining. The cells were harvested, fixed with ice cold methanol, treated for 45 min with 10 μg/ml of RNAse and resuspended in PBS containing 10 μg/ml of PI, and analysed by flow cytometry. […] For corresponding confocal microscopy images, cells attached to coverslips were fixed with cold methanol and permeabilized in PBS containing 0.1% triton X-100 for two minutes and blocked for 60 minutes, at room temperature with 2% BSA in PBS. Cells were stained with the DNA binding dye TOPRO-3 (Invitrogen) to label the DNA and laminB (Santa Cruz) to label the nuclear envelope. The anti-Lamin B antibody was used at a 1:100 dilution for two hours at room temperature. After washing several times with PBS, cells were stained for two hours at room temperature, with secondary antibody diluted 1:300 and co-incubated with TOPRO-3 (1:500) (Invitrogen). Samples were mounted in Vectashield hard-set mounting media (Vector Laboratories) and imaged on a Nikon Eclipse Cl confocal microscope with a 1.4 NA 60× oil-immersion lens, using minimum pinhole (30 μm). Images were captured and processed using EZ-C1 3.50 imaging software (Nikon, Inc). Scale bars, 10 μm.

[1] = test system: Tg(fli1:EGFP) zebrafish embryos; assay: Zebrafish angiogenesis model; details: for blood vessel formation in zebrafish embryos: treated 20-48 hpf, 1 μM 6 or SU5416, up to 10 μM 3; for effect on established intersegmental vessels: compound added at 30 hpf, […] 6, 1 μM sorafenib; for viability of zebrafish embryos: treatment at 48-72 hpf
Protocol: Embryos were treated with 1 μM 6 or SU5416, or 10 μM 3 from 20 hours post fertilization (hpf) until 48 hpf. Representative 3D reconstructions of the blood vasculature are shown for both the head and tail regions of the embryo. Designations for the major vessels in the head and tail of the zebrafish embryo at 48 hpf are available in FIG. 8A. (FIG. 3B) Disruption of lumen formation in the zebrafish during late vessel maturation. Zebrafish treated with either 1 μM 6 or 10 μM 3 from 20-48 hpf were imaged at 35 and 48 hpf. […] Shown is 3D overlap reconstruction of the GFP expressing intersegmental vessels with TUNEL-positive nuclei at 48 hpf (shown in red). Representative phase contrast views as well as quantification of intersegmental vessel volumes from FIG. 3A and FIG. 3B can be found in FIG. 8B-D, respectively. (FIG. 3C) Time course of drug addition to zebrafish. […] At 30 hpf the zebrafish embryos established early vessels with evident lumens. […] All scale bars=100 μm.
Z-stacks from laser scanning confocal microscopy are shown depicting formation of the intersegmental vessels at 48 hpf. n=6 embryos/treatment. (FIG. 4B) HUVECs were co-cultured with hTERT-human hepatic stellate cells in a 3-D collagen matrix in the presence of complete EBM-2 medium to monitor pericyte-associated endothelial tube formation. […] The endothelial tubes were stained at 24 h by adding 2 μl FITC labeled Ulex europaeus lectin (Vector labs) per well. Images were acquired 48 h post seeding of the cells. One representative panel from 3 independent experiments is shown. Green—FITC lectin labeled endothelial cells, Red—DiIC(3) labeled stellate cells. […] Scale bar=200 μm. (FIG. 4C) Tube lengths were measured using Metamorph software for each tube for all 10 fields that were acquired. The % pericyte-covered tube length was calculated from the ratio of tube length sums for the tubes with and without pericyte contact. Error bars are reported as ±SEM of two wells per group. *indicates p<0.05 compared to DMSO group.
Zebrafish studies. Transgenic Tg(fli1:EGFP) zebrafish embryos were purchased from www.zfin.org and reported elsewhere (Lawson, et al. (2002) Dev Biol 248:307-318) and maintained according to (“Zebrafish—A Practical Approach”, Oxford University Press, 2002). Compounds in DMSO stock solutions were diluted directly into the water and vessels were imaged for GFP expression using a Nikon c1-si confocal microscope. Apoptosis was measured by TUNEL staining using the Apoptag in situ Red Fluorescence Kit (Chemicon) with a protocol described previously (Stanton, et al. (2006) The Journal of biological chemistry 281:28782-28793).

Chain of ERK2 (P28482 whole entry): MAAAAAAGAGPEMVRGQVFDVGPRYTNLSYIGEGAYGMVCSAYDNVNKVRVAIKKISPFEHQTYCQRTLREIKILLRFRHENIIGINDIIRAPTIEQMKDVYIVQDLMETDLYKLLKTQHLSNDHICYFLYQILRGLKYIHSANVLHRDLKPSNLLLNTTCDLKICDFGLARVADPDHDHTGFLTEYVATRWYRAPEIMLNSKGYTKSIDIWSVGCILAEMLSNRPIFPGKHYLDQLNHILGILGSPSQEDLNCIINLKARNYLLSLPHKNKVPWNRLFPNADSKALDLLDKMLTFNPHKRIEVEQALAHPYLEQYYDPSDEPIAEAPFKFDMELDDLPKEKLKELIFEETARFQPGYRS
Chain of PAK2 (Q13177 whole entry): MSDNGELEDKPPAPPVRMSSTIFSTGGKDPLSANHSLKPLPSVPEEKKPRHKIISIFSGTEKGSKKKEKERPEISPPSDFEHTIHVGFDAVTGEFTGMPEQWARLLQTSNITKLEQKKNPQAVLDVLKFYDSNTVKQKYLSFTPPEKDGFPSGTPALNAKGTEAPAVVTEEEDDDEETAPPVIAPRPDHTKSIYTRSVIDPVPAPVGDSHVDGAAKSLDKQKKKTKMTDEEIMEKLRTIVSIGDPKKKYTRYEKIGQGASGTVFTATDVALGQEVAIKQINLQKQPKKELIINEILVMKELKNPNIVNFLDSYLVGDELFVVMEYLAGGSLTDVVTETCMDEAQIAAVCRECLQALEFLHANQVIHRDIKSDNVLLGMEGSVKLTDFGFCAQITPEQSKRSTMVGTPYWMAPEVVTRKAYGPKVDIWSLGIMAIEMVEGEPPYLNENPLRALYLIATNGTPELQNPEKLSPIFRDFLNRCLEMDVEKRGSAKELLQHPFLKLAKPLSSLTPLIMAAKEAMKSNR
Chain of MEK1 (Q02750 whole entry): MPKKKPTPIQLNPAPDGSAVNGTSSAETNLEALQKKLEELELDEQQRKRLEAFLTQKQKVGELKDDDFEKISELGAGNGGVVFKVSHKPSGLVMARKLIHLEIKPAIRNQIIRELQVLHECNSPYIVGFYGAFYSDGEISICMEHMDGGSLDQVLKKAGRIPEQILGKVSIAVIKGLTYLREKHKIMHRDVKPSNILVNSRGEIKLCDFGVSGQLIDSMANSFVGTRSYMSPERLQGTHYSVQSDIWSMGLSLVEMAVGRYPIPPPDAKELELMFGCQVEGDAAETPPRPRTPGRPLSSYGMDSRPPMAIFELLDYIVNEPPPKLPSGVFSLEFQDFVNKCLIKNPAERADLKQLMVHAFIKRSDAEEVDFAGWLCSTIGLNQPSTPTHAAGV
Chain of FGFR1 (P11362 22-822): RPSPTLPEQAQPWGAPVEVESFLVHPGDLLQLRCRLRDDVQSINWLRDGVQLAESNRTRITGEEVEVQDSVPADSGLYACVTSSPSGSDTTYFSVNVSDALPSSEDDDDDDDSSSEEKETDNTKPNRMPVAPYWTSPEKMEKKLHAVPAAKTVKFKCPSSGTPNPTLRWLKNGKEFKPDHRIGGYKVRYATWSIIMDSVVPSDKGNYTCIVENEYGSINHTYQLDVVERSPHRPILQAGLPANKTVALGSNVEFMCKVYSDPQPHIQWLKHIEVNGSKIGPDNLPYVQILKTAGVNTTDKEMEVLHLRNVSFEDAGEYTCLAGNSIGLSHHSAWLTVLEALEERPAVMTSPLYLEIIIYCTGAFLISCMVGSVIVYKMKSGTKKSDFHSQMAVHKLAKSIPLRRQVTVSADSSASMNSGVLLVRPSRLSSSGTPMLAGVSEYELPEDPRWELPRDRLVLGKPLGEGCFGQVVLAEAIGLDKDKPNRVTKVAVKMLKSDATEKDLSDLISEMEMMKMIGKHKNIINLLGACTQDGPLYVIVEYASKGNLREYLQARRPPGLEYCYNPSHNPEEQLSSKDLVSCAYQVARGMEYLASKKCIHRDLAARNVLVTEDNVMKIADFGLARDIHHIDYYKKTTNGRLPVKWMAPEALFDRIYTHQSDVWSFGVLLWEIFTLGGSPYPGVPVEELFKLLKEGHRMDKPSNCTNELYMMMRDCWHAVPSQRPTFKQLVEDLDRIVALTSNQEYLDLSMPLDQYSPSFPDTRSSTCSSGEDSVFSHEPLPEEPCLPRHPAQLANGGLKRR
Chain of FLT1 (VEGFR1) (P17948 27-1338): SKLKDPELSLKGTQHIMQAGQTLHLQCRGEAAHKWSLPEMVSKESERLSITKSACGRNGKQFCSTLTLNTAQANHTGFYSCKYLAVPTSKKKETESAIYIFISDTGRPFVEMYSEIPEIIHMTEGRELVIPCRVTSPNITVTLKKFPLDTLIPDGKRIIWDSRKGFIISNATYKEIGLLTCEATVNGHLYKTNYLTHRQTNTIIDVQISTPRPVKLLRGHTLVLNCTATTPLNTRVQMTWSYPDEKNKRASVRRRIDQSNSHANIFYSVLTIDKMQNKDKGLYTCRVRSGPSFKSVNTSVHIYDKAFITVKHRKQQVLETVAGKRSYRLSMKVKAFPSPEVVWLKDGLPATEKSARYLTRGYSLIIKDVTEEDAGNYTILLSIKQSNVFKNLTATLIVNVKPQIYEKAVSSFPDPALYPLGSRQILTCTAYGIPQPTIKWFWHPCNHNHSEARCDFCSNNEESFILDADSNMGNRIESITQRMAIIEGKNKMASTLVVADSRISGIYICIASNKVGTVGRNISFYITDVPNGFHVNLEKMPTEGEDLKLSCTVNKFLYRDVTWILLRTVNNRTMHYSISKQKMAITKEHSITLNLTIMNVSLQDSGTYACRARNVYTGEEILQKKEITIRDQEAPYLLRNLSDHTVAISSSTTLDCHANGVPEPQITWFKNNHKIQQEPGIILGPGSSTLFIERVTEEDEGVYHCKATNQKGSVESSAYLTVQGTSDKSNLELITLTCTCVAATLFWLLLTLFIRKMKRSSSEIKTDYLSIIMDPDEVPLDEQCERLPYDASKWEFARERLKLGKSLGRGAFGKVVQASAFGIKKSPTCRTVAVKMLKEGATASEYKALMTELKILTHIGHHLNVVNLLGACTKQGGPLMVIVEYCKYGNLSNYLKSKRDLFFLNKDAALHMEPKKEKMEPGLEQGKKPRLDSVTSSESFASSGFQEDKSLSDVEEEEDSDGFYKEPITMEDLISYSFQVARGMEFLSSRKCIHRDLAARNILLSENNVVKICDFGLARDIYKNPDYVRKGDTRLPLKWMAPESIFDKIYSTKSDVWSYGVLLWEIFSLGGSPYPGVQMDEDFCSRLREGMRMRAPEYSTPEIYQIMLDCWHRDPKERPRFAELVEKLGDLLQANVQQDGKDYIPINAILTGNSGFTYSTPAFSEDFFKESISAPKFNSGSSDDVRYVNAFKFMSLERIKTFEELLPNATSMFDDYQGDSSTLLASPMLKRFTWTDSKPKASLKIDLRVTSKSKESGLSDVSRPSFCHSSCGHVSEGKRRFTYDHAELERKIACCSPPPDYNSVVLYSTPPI
Chain of FAK2 (Q14289 whole entry): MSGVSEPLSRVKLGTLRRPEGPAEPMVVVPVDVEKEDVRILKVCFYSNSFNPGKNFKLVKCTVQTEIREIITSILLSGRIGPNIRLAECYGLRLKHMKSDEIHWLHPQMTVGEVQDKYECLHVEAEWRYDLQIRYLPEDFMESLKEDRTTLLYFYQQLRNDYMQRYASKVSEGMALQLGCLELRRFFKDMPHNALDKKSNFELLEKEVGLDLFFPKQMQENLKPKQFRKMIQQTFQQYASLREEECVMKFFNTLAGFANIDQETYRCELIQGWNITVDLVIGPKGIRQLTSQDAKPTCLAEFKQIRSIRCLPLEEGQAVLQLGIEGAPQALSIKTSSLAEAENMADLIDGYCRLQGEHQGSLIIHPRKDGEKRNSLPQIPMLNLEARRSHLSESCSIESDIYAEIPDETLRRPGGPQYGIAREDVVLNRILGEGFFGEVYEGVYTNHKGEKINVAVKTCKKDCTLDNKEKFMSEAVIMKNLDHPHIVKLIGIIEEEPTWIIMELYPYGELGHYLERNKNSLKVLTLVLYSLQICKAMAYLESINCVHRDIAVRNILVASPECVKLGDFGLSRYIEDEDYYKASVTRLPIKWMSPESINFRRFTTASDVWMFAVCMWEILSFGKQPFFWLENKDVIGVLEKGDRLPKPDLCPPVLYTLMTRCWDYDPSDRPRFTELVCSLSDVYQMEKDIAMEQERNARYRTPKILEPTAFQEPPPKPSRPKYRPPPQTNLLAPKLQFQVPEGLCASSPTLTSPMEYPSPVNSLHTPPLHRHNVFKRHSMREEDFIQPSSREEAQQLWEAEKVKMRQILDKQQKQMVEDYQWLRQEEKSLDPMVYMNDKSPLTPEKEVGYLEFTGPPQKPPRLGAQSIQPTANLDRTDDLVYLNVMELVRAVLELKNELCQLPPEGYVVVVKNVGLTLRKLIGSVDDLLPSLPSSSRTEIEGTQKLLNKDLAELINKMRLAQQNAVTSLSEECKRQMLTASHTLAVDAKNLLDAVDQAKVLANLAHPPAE
Chain of AKT1 (P31749 whole entry): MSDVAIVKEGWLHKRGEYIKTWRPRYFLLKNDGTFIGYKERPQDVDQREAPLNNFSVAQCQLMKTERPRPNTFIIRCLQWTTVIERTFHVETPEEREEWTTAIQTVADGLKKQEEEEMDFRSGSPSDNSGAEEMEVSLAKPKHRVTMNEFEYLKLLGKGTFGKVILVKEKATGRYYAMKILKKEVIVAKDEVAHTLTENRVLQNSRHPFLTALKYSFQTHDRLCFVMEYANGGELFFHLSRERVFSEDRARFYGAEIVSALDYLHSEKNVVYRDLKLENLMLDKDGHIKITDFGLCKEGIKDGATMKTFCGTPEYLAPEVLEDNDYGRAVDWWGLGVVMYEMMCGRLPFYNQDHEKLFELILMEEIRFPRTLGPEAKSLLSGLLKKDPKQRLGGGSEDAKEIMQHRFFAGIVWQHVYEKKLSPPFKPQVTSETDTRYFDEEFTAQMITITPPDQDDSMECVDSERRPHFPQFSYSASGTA

SMILES | % Inhibition at 10 μM (AKT1) [%] | % Inhibition at 10 μM (MEK2) [%] | % Inhibition at 10 μM (ERK1) [%] | % Inhibition at 10 μM (JNK3) [%] | % Inhibition at 10 μM (PKC iota) [%] | % Inhibition at 10 μM (FGFR3) [%] | % Inhibition at 10 μM (FLT1 (VEGFR1)) [%] | % Inhibition at 10 μM (MEK1) [%] | % Inhibition at 10 μM (FGFR2) [%] | % Inhibition at 10 μM (PKC beta II) [%] | % Inhibition at 10 μM (PDGFR beta) [%] | % Inhibition at 10 μM (FAK2) [%] | % Inhibition at 10 μM (PKC eta) [%] | % Inhibition at 10 μM (ERK2) [%] | % Inhibition at 10 μM (PKC alpha) [%] | % Inhibition at 10 μM (PAK2) [%] | % Inhibition at 10 μM (JNK1) [%] | % Inhibition at 10 μM (FGFR1) [%] | cell cycle / mitotic progression (XPA-1 cells) | blood vessel formation in zebrafish embryos [1] | also measured
Nc1cc(Oc2ccc(-c3nnc(Nc4cccc(C(F)(F)F)c4)[nH]3)cc2)ncn1 [Compound 3] | 1 | −8 | 1 | −8 | −2 | −12 | 5 | −5 | −1 | −3 | 35 | −4 | 1 | −4 | −5 | 2 | −5 | 9 | showed no effect | had no effect | –
CSc1nc(N)cc(Oc2ccc(-c3nnc(Nc4cccc(C(F)(F)F)c4)[nH]3)cc2)n1 [Compound 6] | 2 | −6 | 2 | −8 | 0 | −13 | −2 | −2 | −2 | −4 | 20 | −4 | 3 | −5 | −1 | 1 | −3 | 6 | G2/M arrest in all tumor cell lines tested | failed to form mature intersegmental vessels | effect on established intersegmental vessels [1]: did not suppress the vascular growth and patterning; viability of zebrafish embryos [1]: all viable
CNC(=O)c1cc(Oc2ccc(NC(=O)Nc3ccc(Cl)c(C(F)(F)F)c3)cc2)ccn1 [sorafenib, reference compound] | – | – | – | – | – | – | – | – | – | – | – | – | – | – | – | – | – | – | had no effect on mitotic progression | – | inhibition at 10 µM (AKT1): 2%; inhibition at 10 µM (MEK2): -4%; inhibition at 10 µM (ERK1): 3%; inhibition at 10 µM (JNK3): -4%; inhibition at 10 µM (PKC iota): -2%; inhibition at 10 µM (FGFR3): 37%; inhibition at 10 µM (FLT1 (VEGFR1)): 93%; inhibition at 10 µM (MEK1): 0%; inhibition at 10 µM (FGFR2): 83%; inhibition at 10 µM (PKC beta II): -3%; inhibition at 10 µM (PDGFR beta): 93%; inhibition at 10 µM (FAK2): -3%; inhibition at 10 µM (PKC eta): 2%; inhibition at 10 µM (ERK2): 0%; inhibition at 10 µM (PKC alpha): -2%; inhibition at 10 µM (PAK2): 2%; inhibition at 10 µM (JNK1): -2%; inhibition at 10 µM (FGFR1): 44%; effect on established intersegmental vessels [1]: disrupted mature intersegmental blood vessels; viability of zebrafish embryos [1]: induced death in all animals tested
